According to patent publication US10670605B2, “Cysteine reactive probes and uses thereof” (The Scripps Research Institute, priority 2015, dated 2020):

Tests used:
Assay in all cases: Competitive isoTOP-ABPP, cell lysates
Format in all cases: binding
ACAT1 C413 (P24752) = molecular target: T1, ACAT1 C413 (P24752) (Homo sapiens, UniProt P24752); conditions: for isoTOP-ABPP ratio P24752_C413: 500 μM, invitro; for isoTOP-ABPP reactivity ratio, P24752_C413 / isoTOP-ABPP reactivity profile ratio, P24752_C413: 500 μm
T1 sequence (P24752 34-427): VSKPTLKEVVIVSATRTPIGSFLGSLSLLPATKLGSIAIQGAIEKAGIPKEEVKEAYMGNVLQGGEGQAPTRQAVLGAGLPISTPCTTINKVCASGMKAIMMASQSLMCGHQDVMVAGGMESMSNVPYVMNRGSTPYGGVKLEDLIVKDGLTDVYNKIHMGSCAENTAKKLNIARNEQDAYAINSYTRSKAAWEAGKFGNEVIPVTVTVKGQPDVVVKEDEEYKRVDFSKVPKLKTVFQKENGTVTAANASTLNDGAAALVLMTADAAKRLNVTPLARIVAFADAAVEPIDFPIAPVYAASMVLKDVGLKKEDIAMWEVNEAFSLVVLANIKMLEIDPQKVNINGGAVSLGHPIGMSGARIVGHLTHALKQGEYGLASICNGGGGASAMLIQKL

ACAT1 C196 (P24752) = molecular target: T2, ACAT1 C196 (P24752) (Homo sapiens, UniProt P24752); conditions: for isoTOP-ABPP ratio, P24752_C196: 500 μM, invitro; for isoTOP-ABPP reactivity ratio, P24752_C196 / isoTOP-ABPP reactivity profile ratio, P24752_C196: 500 μm
T2 sequence (P24752 34-427): T1 sequence (P24752 34-427)

ERCC3 C342 (P19447) = molecular target: T3, ERCC3 C342 (P19447) (Homo sapiens, UniProt P19447); conditions: for isoTOP-ABPP ratio P19447_C342: 500 μM, invitro
T3 sequence (P19447 1-782): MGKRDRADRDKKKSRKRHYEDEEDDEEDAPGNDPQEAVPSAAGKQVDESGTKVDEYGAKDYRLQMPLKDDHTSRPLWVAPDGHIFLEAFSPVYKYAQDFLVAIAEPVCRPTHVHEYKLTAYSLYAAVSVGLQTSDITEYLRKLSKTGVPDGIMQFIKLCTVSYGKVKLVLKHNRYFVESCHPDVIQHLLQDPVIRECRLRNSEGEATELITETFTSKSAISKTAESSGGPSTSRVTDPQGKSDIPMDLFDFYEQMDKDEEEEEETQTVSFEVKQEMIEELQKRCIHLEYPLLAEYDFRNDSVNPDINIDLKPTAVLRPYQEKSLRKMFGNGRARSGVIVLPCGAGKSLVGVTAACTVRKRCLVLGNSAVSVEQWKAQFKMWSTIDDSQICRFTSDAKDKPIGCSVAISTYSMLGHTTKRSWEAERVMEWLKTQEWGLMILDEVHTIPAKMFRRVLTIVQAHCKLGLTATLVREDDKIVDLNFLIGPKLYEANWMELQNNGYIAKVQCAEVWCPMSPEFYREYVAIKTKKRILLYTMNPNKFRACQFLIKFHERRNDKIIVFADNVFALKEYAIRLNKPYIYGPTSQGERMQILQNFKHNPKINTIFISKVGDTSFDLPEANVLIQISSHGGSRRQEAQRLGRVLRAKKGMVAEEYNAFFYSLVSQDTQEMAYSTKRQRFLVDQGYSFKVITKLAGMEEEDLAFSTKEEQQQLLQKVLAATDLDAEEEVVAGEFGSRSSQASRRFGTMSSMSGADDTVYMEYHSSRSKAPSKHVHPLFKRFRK

Row | isoTOP-ABPP ratio P24752_C413 (ACAT1 C413 (P24752); 231) | isoTOP-ABPP ratio, P24752_C196 (ACAT1 C196 (P24752); 231) | isoTOP-ABPP ratio P19447_C342 (ERCC3 C342 (P19447); 231) | isoTOP-ABPP reactivity ratio, P24752_C413 (ACAT1 C413 (P24752); in-vitro_ramos) | isoTOP-ABPP reactivity ratio, P24752_C196 (ACAT1 C196 (P24752); in-vitro_ramos) | isoTOP-ABPP reactivity ratio, P24752_C196 (ACAT1 C196 (P24752); in-vitro_ramos_231) | Compound | also measured
1 | 13.0 | 2.5 | 3.0 | – | – | – | O=C(CCl)N1CCN(S(=O)(=O)c2ccccc2F)CC1 [compound 10] | isoTOP-ABPP ratio P24752_C413 (ACAT1 C413 (P24752); ramos): 1.6; isoTOP-ABPP ratio, P24752_C196 (ACAT1 C196 (P24752); ramos): 1.7
2 | – | – | – | 0.9 | 1.0 | 1.3 | Cc1ccc(C=C(C#N)C(=O)NCCN2CCOCC2)cc1 [compound 41] | isoTOP-ABPP reactivity ratio, P24752_C413 (ACAT1 C413 (P24752); in-vitro_ramos_231): 0.8; isoTOP-ABPP reactivity ratio, P19447_C342 (ERCC3 C342 (P19447); 500 μm, in-vitro_ramos_231): 1.1
3 | – | – | – | 4.1 | 2.0 | 2.3 | CC(C)(C)c1cc(NC(=O)CCl)on1 [compound 32] | isoTOP-ABPP reactivity ratio, P24752_C413 (ACAT1 C413 (P24752); in-vitro_ramos_231): 6.8
4 | 1.1 | 1.0 | 1.1 | – | – | – | CNS(=O)(=O)C=Cc1ccc2c(ccn2Cc2ccccc2)c1 [compound 6] | –
5 | – | – | – | – | – | – | C=CC(=O)N(c1ccccc1)C1CCCCC1 [compound 46] | isoTOP-ABPP reactivity profile ratio, P24752_C413 (ACAT1 C413 (P24752); in-vitro_ramos_231): 1.1; isoTOP-ABPP reactivity profile ratio, P24752_C196 (ACAT1 C196 (P24752); in-vitro_ramos_231): 0.9; isoTOP-ABPP reactivity profile ratio, P19447_C342 (ERCC3 C342 (P19447); 500 μm, in-vitro_ramos_231): 1.0
6 | – | – | – | 1.3 | 1.4 | 0.9 | O=C(CCl)Nc1ccccc1C1CCCCCC1 [compound 35] | –
7 | – | – | – | – | – | – | N#CC(=Cc1ccc(-c2ccccc2Cl)o1)C(N)=O [compound 42] | isoTOP-ABPP reactivity profile ratio, P24752_C413 (ACAT1 C413 (P24752); in-vitro_ramos): 0.7; isoTOP-ABPP reactivity profile ratio, P24752_C196 (ACAT1 C196 (P24752); in-vitro_ramos): 0.8
8 | – | – | – | – | – | – | O=C(CCl)Nc1ccc(-c2ccccc2)cc1 [compound 52] | isoTOP-ABPP reactivity profile ratio, P24752_C413 (ACAT1 C413 (P24752); in-vitro_ramos): 1.5; isoTOP-ABPP reactivity profile ratio, P24752_C413 (ACAT1 C413 (P24752); in-vitro_ramos_231): 1.9; isoTOP-ABPP reactivity profile ratio, P24752_C196 (ACAT1 C196 (P24752); in-vitro_ramos): 1.5; isoTOP-ABPP reactivity profile ratio, P24752_C196 (ACAT1 C196 (P24752); in-vitro_ramos_231): 1.3; isoTOP-ABPP reactivity profile ratio, P19447_C342 (ERCC3 C342 (P19447); 500 μm, in-vitro_ramos_231): 1.0
9 | 1.9 | 1.5 | 2.9 | – | – | – | Cn1cc(S(=O)(=O)N2CCOCC2)cc1C(=O)NC(=O)CCl [compound 11] | isoTOP-ABPP ratio P24752_C413 (ACAT1 C413 (P24752); ramos): 1.7; isoTOP-ABPP ratio, P24752_C196 (ACAT1 C196 (P24752); ramos): 1.3; isoTOP-ABPP ratio P19447_C342 (ERCC3 C342 (P19447); ramos): 1.5
